In US12077483B2, “Modified amine lipids” (Intellia Therapeutics, Inc., priority 2018, dated 2024):
Where “and” joins values, the source holds several entries; their conditions need not be identical. Equal entries are not always repeated. One block for each compound: values may come before it.

Assays:
[1] = tested on: mouse TTR; assay: Serum TTR ELISA in mice after LNP delivery; type: in vivo
Procedure, shortened: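 Female CD-1 mice received LNP at 0.1 mpk unless noted; serum was collected 6 or 7 days later. Total serum TTR was measured by mouse prealbumin ELISA at 10,000- and/or 2,500-fold dilution and is expressed as a percentage of vehicle control.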

[2] = pKa of amine lipid by TNS fluorescence; type: physicochemical; details: probe TNS (6-(p-toluidino)-2-naphthalenesulfonic acid sodium salt), unformulated amine lipid in ethanol, sodium phosphate buffers -9.0
Procedure, shortened: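 Unformulated amine lipid, about 100 μM final, in 0.1 M sodium phosphate buffers spanning pH 4.5–9.0 with TNS. Fluorescence read at ex 321/em 448 nm; normalized data fitted sigmoidally to give pKa.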

[3] = RNA encapsulation efficiency of LNP (Ribogreen fluorescence assay); type: physicochemical; details: for % E: Table 13, LNP sgRNA:Cas9 mRNA 1:2 w/w
Procedure, shortened: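 LNP samples diluted in 1× TE with or without 0.2% Triton-X 100 for total or free RNA, stained ~10 min at room temperature in the dark with RiboGreen; fluorescence ex 488/em 525 nm against RNA standard curves. Encapsulation efficiency = (Total RNA−Free RNA)/Total RNA.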

[4] = LNP average particle size and polydispersity by dynamic light scattering; type: physicochemical
Procedure, shortened: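 LNPs were diluted in PBS to a count rate of about 200-400 kcps and measured by DLS on a Zetasizer. Size is the intensity-weighted Z-average diameter, reported with number-average diameter, and the polydispersity index describes the spread of sizes around the mean.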

[5] = LNP with the compound as amine lipid, Expt. 3, composition ratio (mol %) 50/9/38/3 for Cmpnd 49, 50/10/38.5/1.5 for the others
[6] = LNP with the compound as amine lipid, Expt. 5, composition ratio (mol %) 50/10/38.5/1.5
[7] = LNP with the compound as amine lipid, Expt. 9, composition ratio (mol %) 50/9/38/3 for Cmpnd 49, 50/10/38.5/1.5 for the others
[8] = Table 10, LNP with G00534 sgRNA:Cas9 mRNA 1:2 w/w
[9] = Table 13, LNP sgRNA:Cas9 mRNA 1:2 w/w, N/P 6.0
[10] = LNP with the compound as amine lipid, Expt. 1, composition ratio (mol %) 50/9/38/3 for Cmpnd 49, 50/10/38.5/1.5 for the others
[11] = LNP with the compound as amine lipid, Expt. 2, composition ratio (mol %) 50/9/39.5/3 for Cmpnd 49, 50/9/39.5/1.5 for the others
[12] = LNP with the compound as amine lipid, Expt. 4, composition ratio (mol %) 50/9/38/3 for Cmpnd 49, 50/10/38.5/1.5 for the others
[13] = LNP with the compound as amine lipid, Expt. 6, composition ratio (mol %) 50/9/38/3 for Cmpnd 49, 50/10/38.5/1.5 for the others
[14] = LNP with the compound as amine lipid, Expt. 7, composition ratio (mol %) 50/9/38/3 for Cmpnd 49, 50/10/38.5/1.5 for the others
[15] = LNP with the compound as amine lipid, Expt. 8, composition ratio (mol %) 50/9/38/3 for Cmpnd 49, 50/10/38.5/1.5 for the others
[16] = LNP with the compound as amine lipid, Expt. 10, composition ratio (mol %) 50/9/38/3 for Cmpnd 49, 50/10/38.5/1.5 for the others
[17] = Table 4, LNP with G00282 sgRNA:Cas9 mRNA 1:1 w/w, N/P 6.0
[18] = Table 6, LNP with G00282 sgRNA:Cas9 mRNA 1:1 w/w

- pKa [2]: 6.5
- Encapsulation (%) [3, 5]: 98%
- Encapsulation (%) [3, 6]: 98%
- Encapsulation (%) [3, 7]: 97%
- Encapsulation (%) [3, 8]: 87%
- % E ([3]; N/P 6.0): 97%
- Num Ave Size (nm) [4, 5]: 76.57 nm
- PDI [4, 5]: 0.02
- Z-Ave Size (nm) [4, 5]: 94.33 nm
- Num Ave Size (nm) [4, 6]: 77 nm
- PDI [4, 6]: 0.06
- Z-Ave Size (nm) [4, 6]: 103.00 nm
- Num Ave Size (nm) [4, 7]: 78 nm
- PDI [4, 7]: 0.04
- Z-Ave Size (nm) [4, 7]: 98 nm
- Num Avg Size (nm) [4, 8]: 79.18 nm
- PDI [4, 8]: 0.050
- Z-Avg Size (nm) [4, 8]: 98.55 nm
- Number Average [nm] [4, 9]: 84.16 nm
- PDI [4, 9]: 0.021
- Z-Ave Size (nm) [4, 9]: 102.8 nm
Structure (SMILES): CCCCC/C=C\C/C=C\CCCCCCCC(=O)OCC(COC(=O)CCCCCCC/C=C\C/C=C\CCCCC)OC(=O)CCC(CCCCCC)OC(=O)NCCN1CCCC1 (racemic) [Compound 50, 2-((4-(((2-(pyrrolidin-1-yl)ethyl)carbamoyl)oxy)decanoyl)oxy)propane-1,3-diyl (9Z,9′Z,12Z,12′Z)-bis(octadeca-9,12-dienoate)]
- Serum TTR % TSS ([1]; mouse serum, relative to TSS control of same experiment, dose 0.03 mpk, 0.03 mg/kg): 71.3 % TSS and 45.51 % TSS and 70.1 % TSS

- Encapsulation (%) [3, 10]: 98%
- Encapsulation (%) [3, 11]: 98%
- Encapsulation (%) [3, 5]: 93%
- Encapsulation (%) [3, 12]: 98%
- Encapsulation (%) [3, 6]: 98%
- Encapsulation (%) [3, 13]: 99%
- Encapsulation (%) [3, 14]: 93%
- Encapsulation (%) [3, 15]: 98%
- Encapsulation (%) [3, 7]: 98%
- Encapsulation (%) [3, 16]: 98%
- Encapsulation (%) [3, 17]: 98%
- Encapsulation (%) [3, 18]: 99%
- Encapsulation (%) [3, 8]: 97%
- % E ([3]; N/P 6.0): 98%
- Num Ave Size (nm) [4, 10]: 69.84 nm
- PDI [4, 10]: 0.05
- Z-Ave Size (nm) [4, 10]: 87.92 nm
- Num Ave Size (nm) [4, 11]: 73.13 nm
- PDI [4, 11]: 0.014
- Z-Ave Size (nm) [4, 11]: 88.36 nm
- Num Ave Size (nm) [4, 5]: 63.19 nm
- PDI [4, 5]: 0.03
- Z-Ave Size (nm) [4, 5]: 77.07 nm
- Num Ave Size (nm) [4, 12]: 66.26 nm
- PDI [4, 12]: 0.026
- Z-Ave Size (nm) [4, 12]: 81.83 nm
- Num Ave Size (nm) [4, 6]: 65 nm
- PDI [4, 6]: 0.03
- Z-Ave Size (nm) [4, 6]: 83.00 nm
- Num Ave Size (nm) [4, 13]: 74 nm
- PDI [4, 13]: 0.02
- Z-Ave Size (nm) [4, 13]: 90.00 nm
- Num Ave Size (nm) [4, 14]: 63.19 nm
- PDI [4, 14]: 0.026
- Z-Ave Size (nm) [4, 14]: 77.07 nm
- Num Ave Size (nm) [4, 15]: 69.01 nm
- PDI [4, 15]: 0.026
- Z-Ave Size (nm) [4, 15]: 84.47 nm
- Num Ave Size (nm) [4, 7]: 70 nm
- PDI [4, 7]: 0.04
- Z-Ave Size (nm) [4, 7]: 87 nm
- Num Ave Size (nm) [4, 16]: 75 nm
- PDI [4, 16]: 0.04
- Z-Ave Size (nm) [4, 16]: 90 nm
- Num Ave Size (nm) [4, 17]: 69.51 nm
- PDI [4, 17]: 0.007
- Z-Ave Size (nm) [4, 17]: 84.93 nm
- Num Ave Size (nm) [4, 18]: 69.75 nm
- PDI [4, 18]: 0.011
- Z-Ave Size (nm) [4, 18]: 83.63 nm
- Num Avg Size (nm) [4, 8]: 69.85 nm
- PDI [4, 8]: 0.028
- Z-Avg Size (nm) [4, 8]: 87.84 nm
- Number Average [nm] [4, 9]: 74.82 nm
- PDI [4, 9]: 0.015
- Z-Ave Size (nm) [4, 9]: 93.14 nm
Structure (SMILES): CCCCC/C=C\C/C=C\CCCCCCCC(=O)OCC(COC(=O)CCC(OCCCCCCCC)OCCCCCCCC)COC(=O)OCCCN(CC)CC (stereo not shown) [Compound 49, 3-((4,4-bis(octyloxy)butanoyl)oxy)-2-((((3-(diethylamino)propoxy)carbonyl)oxy)methyl)propyl (9Z,12Z)-octadeca-9,12-dienoate, reference compound]
- Serum TTR ([1]; Table 7, G00282, CD-1 female mice i.v., dose 0.1 mpk): 254 µg/mL
- Serum TTR % TSS ([1]; Table 7, G00282, CD-1 female mice i.v., dose 0.1 mpk, percentage of vehicle control): 31% TSS
- Serum TTR ([1]; Table 7, G00282, CD-1 female mice i.v., dose 0.3 mpk): 40 µg/mL
- Serum TTR % TSS ([1]; Table 7, G00282, CD-1 female mice i.v., dose 0.3 mpk, percentage of vehicle control): 5% TSS
